Target: T1, PIk1 (Homo sapiens, UniProt P53350)
T1 construct: His tag (histidine tag) (N); made in house; host or cells: SF9 insect cells
Assay: PIk1 kinase activity inhibition assay (33P incorporation into alpha casein, flash plates)
Type: biochemical
Conditions: recombinant N-terminally histidine-tagged PIk1, alpha casein as substrate, 100 nM Li-ATP, 80 minutes at 30°C
Experimental: The inhibition of PIk1 kinase activity can be measured using recombinant PIk1 protein expressed as an N-terminally histidine-tagged protein in SF9 insect cells and alpha casein as substrate. The PIk1 assay is run in 96 well plates by incubating 50 to 100 ng per well recombinant PIk1, 500 ng per well alpha casein (Sigma, # C-6780) as substrate, 10 µl of compound of invention (test compounds were dissolved as 20 mM solutions in dimethylsulfoxide (DMSO) and subsequently diluted), and 100 nM Li-ATP (including ^33P-ATP) in 100 µl of reaction buffer ([…], pH 7.5; 3 mM MgCl2; 3 mM MnCl2; 3 µM Na-Orthovanadat; 1 mM DTT; 1 µg/ml PEG 8000) for 80 minutes at 30°C. The reactions are terminated by adding 100 µl stopping buffer (2% H3PO4 for 5 minutes) and are washed 3 times with washing solution (0,9% NaCl). Determining ^33P incorporated into the protein substrate alpha casein, the detection is based on the adhesion of the phosphorylated protein to the surface of scintillator-coated flash plates (Perkin Elmer, USA; # SMP-200). Phosphorylation of alpha casein is measured by counting the radioactivity bound to the plate for 60 sec. using a plate reader (Perkin Elmer, USA; Wallac Microbeta). By this method, the IC50 value of the PIk1 inhibition is determined as described above. […]

T1 sequence (P53350 whole entry): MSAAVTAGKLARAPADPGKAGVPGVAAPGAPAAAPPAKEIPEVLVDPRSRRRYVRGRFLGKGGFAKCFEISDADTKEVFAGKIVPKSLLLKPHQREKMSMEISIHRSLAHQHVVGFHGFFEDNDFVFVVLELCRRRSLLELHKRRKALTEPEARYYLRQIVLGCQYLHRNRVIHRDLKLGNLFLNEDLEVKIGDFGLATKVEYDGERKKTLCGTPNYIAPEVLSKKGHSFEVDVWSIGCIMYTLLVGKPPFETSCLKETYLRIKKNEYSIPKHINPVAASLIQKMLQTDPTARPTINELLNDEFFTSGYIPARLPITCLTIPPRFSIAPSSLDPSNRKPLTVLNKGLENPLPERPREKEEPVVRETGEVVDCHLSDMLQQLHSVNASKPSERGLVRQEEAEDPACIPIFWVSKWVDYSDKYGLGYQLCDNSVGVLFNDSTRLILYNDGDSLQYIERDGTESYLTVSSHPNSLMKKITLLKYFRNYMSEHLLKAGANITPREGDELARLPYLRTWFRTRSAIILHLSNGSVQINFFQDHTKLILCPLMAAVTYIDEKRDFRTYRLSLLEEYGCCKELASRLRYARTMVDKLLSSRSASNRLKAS

| SMILES | IC50 [nM] |
| --- | --- |
| COc1cc(C(=O)NC2CCN(C)CC2)ccc1Nc1ncc2c(n1)c(Cl)c(OC)c(=O)n2C [Example 16, 4-[(8-chloro-7-methoxy-5-methyl-6-oxo-5,6-dihydropyrido[3,2-d]pyrimidin-2-yl)amino]-3-methoxy-N-(1-methylpiperidin-4-yl)benzamide] | < 1000 |
| COc1cc(C(=O)NC2CCN(C)CC2)ccc1Nc1ncc2c(n1)c(-c1ccoc1)c(OCC1CC1)c(=O)n2C [Example 39, 4-{[7-(cyclopropylmethoxy)-8-(3-furyl)-5-methyl-6-oxo-5,6-dihydro-pyrido[3,2-d]pyrimidin-2-yl]amino}-3-methoxy-N-(1-methylpiperidin-4-yl)benzamide] | < 10 |
| C/C=C/c1c(OCC2CCCC2)c(=O)n(C)c2cnc(Nc3ccc(C(=O)NC4CCN(C)CC4)cc3OC)nc12 [Example 42, 4-({7-(cyclopentylmethoxy)-5-methyl-6-oxo-8-[(1E)-prop-1-en-1-yl]-5,6-dihydropyrido[3,2-d]pyrimidin-2-yl}amino)-3-methoxy-N-(1-methylpiperidin-4-yl)benzamide] | < 100 |
| CN1CCC(NC(=O)c2ccc(Nc3ncc4c(n3)c(-c3ccsc3)c(OCC3CC3)c(=O)n4C)c(Cl)c2)CC1 [Example 70, 3-chloro-4-{[7-(cyclopropylmethoxy)-5-methyl-6-oxo-8-(3-thienyl)-5,6-dihydropyrido[3,2-d]pyrimidin-2-yl]amino}-N-(1-methylpiperidin-4-yl)benzamide] | < 10 |
| COc1cc(C(=O)NC2CCN(C)CC2)ccc1Nc1ncc2c(n1)c(C1=CCCC1)c(OCC1CC1)c(=O)n2C [Example 57, 4-{[8-cyclopent-1-en-1-yl-7-(cyclopropylmethoxy)-5-methyl-6-oxo-5,6-dihydropyrido[3,2-d]pyrimidin-2-yl]amino}-3-methoxy-N-(1-methylpiperidin-4-yl)benzamide] | < 10 |
| C/C=C/c1c(OC)c(=O)n(C)c2cnc(Nc3ccc(C(=O)N[C@@H](C)Cc4c[nH]cn4)cc3OC)nc12 [Example 29, N-[(1S)-2-(1H-imidazol-4-yl)-1-methylethyl]-3-methoxy-4-({7-methoxy-5-methyl-6-oxo-8-[(1E)-prop-1-en-1-yl]-5,6-dihydropyrido[3,2-d]pyrimidin-2-yl}amino)benzamide] | < 100 |
| COc1cc(C(=O)NC2CCN(C)CC2)ccc1Nc1ncc2c(n1)c(-c1cccc(C)c1)c(OCC1CC1)c(=O)n2C [Example 61, 4-{[7-(cyclopropylmethoxy)-5-methyl-8-(3-methylphenyl)-6-oxo-5,6-dihydropyrido[3,2-d]pyrimidin-2-yl]amino}-3-methoxy-N-(1-methylpiperidin-4-yl)benzamide] | < 10 |
| COc1cc(C(=O)NC2CCN(C)CC2)ccc1Nc1ncc2c(n1)c(-c1ccco1)c(OC)c(=O)n2C [Example 10, 4-{[8-(2-furyl)-7-methoxy-5-methyl-6-oxo-5,6-dihydropyrido[3,2-d]pyrimidin-2-yl]amino}-3-methoxy-N-(1-methylpiperidin-4-yl)benzamide] | < 100 |
| Cc1cc(C(=O)NC2CCN(C)CC2)ccc1Nc1ncc2c(n1)c(-c1ccsc1)c(OCC1CC1)c(=O)n2C [Example 66, 4-{[7-(cyclopropylmethoxy)-5-methyl-6-oxo-8-(3-thienyl)-5,6-dihydropyrido[3,2-d]pyrimidin-2-yl]amino}-3-methyl-N-(1-methylpiperidin-4-yl)benzamide] | < 10 |
| C/C=C/c1c(OC)c(=O)n(C)c2cnc(Nc3ccc(C(=O)NCC4CCN(C)CC4)cc3OC)nc12 [Example 26, 3-methoxy-4-({7-methoxy-5-methyl-6-oxo-8-[(1E)-prop-1-en-1-yl]-5,6-dihydropyrido[3,2-d]pyrimidin-2-yl}amino)-N-[(1-methylpiperidin-4-yl)methyl]benzamide] | < 100 |
| COc1cc(C(=O)NC2CCN(C)CC2)ccc1Nc1ncc2c(n1)c(C1=C(C)CCC1)c(OC)c(=O)n2C [Example 15, 3-methoxy-4-{[7-methoxy-5-methyl-8-(2-methylcyclopent-1-en-1-yl)-6-oxo-5,6-dihydropyrido[3,2-d]pyrimidin-2-yl]amino}-N-(1-methylpiperidin-4-yl)benzamide] | < 1000 |
| COc1cc(C(=O)NC2CCN(C)CC2)ccc1Nc1ncc2c(cc(OCC3CC3)c(=O)n2C)n1 [Example 7, 4-{[7-(cyclopropylmethoxy)-5-methyl-6-oxo-5,6-dihydropyrido[3,2-d]pyrimidin-2-yl]amino}-3-methoxy-N-(1-methylpiperidin-4-yl)benzamide] | < 100 |
| COc1cc(C(=O)NC2CCN(C)CC2)ccc1Nc1ncc2c(n1)c(C1CC1)c(OCC1CC1)c(=O)n2C [Example 38, 4-{[8-cyclopropyl-7-(cyclopropylmethoxy)-5-methyl-6-oxo-5,6-dihydro-pyrido[3,2-d]pyrimidin-2-yl]amino}-3-methoxy-N-(1-methylpiperidin-4-yl)benzamide] | < 10 |
| COc1cc(C(=O)NC2CCN(C)CC2)ccc1Nc1ncc2c(n1)c(-c1cccs1)c(OCC1CC1)c(=O)n2C [Example 53, 4-{[7-(cyclopropylmethoxy)-5-methyl-6-oxo-8-(2-thienyl)-5,6-dihydro-pyrido[3,2-d]pyrimidin-2-yl]amino}-3-methoxy-N-(1-methylpiperidin-4-yl)benzamide] | < 10 |
| COc1cc(C(=O)NC2CCN(C)CC2)ccc1Nc1ncc2c(n1)c(-c1ccsc1)c(OC(C)C)c(=O)n2C [Example 31, 4-{[7-isopropoxy-5-methyl-6-oxo-8-(3-thienyl)-5,6-dihydropyrido[3,2-d]pyrimidin-2-yl]amino}-3-methoxy-N-(1-methylpiperidin-4-yl)benzamide] | < 100 |
| C/C=C/c1c(OCC2CC2)c(=O)n(C)c2cnc(Nc3ccc(C(=O)NC4CCN(C)CC4)cc3Cl)nc12 [Example 67, 3-chloro-4-({7-(cyclopropylmethoxy)-5-methyl-6-oxo-8-[(1E)-prop-1-en-1-yl]-5,6-dihydropyrido[3,2-d]pyrimidin-2-yl}amino)-N-(1-methylpiperidin-4-yl)benzamide] | < 10 |
| COc1cc(C(=O)NC2CCN(C)CC2)ccc1Nc1ncc2c(n1)c(-c1ccccn1)c(OCC1CC1)c(=O)n2C [Example 74, 4-{[7-(cyclopropylmethoxy)-5-methyl-6-oxo-8-pyridin-2-yl-5,6-dihydro-pyrido[3,2-d]pyrimidin-2-yl]amino}-3-methoxy-N-(1-methylpiperidin-4-yl)benzamide] | < 10 |
| CCOc1c(C2CC2)c2nc(Nc3ccc(C(=O)NC4CCN(C)CC4)cc3OC)ncc2n(C)c1=O [Example 37, 4-[(8-cyclopropyl-7-ethoxy-5-methyl-6-oxo-5,6-dihydropyrido[3,2-d]pyrimidin-2-yl)amino]-3-methoxy-N-(1-methylpiperidin-4-yl)benzamide] | < 100 |
| CCOc1c(-c2ncco2)c2nc(Nc3ccc(C(=O)NC4CCN(C)CC4)cc3OC)ncc2n(C)c1=O [Example 44, 4-{[7-ethoxy-5-methyl-8-(1,3-oxazol-2-yl)-6-oxo-5,6-dihydropyrido[3,2-d]pyrimidin-2-yl]amino}-3-methoxy-N-(1-methylpiperidin-4-yl)benzamide] | < 100 |
| C/C=C/c1c(OC)c(=O)n(C)c2cnc(Nc3ccc(C(=O)NC4CCN(CC)CC4)cc3OC)nc12 [Example 25, N-(1-ethylpiperidin-4-yl)-3-methoxy-4-({7-methoxy-5-methyl-6-oxo-8-[(1E)-prop-1-en-1-yl]-5,6-dihydropyrido[3,2-d]pyrimidin-2-yl}amino)benzamide] | < 1000 |
| COc1cc(C(=O)NC2CCN(C)CC2)ccc1Nc1ncc2c(n1)c(-c1ccc[nH]1)c(OCC1CC1)c(=O)n2C [Example 73, 4-{[7-(cyclopropylmethoxy)-5-methyl-6-oxo-8-(1H-pyrrol-2-yl)-5,6-dihydro-pyrido[3,2-d]pyrimidin-2-yl]amino}-3-methoxy-N-(1-methylpiperidin-4-yl)benzamide] | < 10 |
| COc1cc(C(=O)NC2CCN(C)CC2)ccc1Nc1ncc2c(n1)c(C1=CCCC1)c(OC)c(=O)n2C [Example 6, 4-[(8-cyclopent-1-en-1-yl-7-methoxy-5-methyl-6-oxo-5,6-dihydropyrido[3,2-d]pyrimidin-2-yl)amino]-3-methoxy-N-(1-methylpiperidin-4-yl)benzamide] | < 100 |
| COc1cc(C(=O)NC2CCN(C)CC2)ccc1Nc1ncc2c(cc(OCC3CCOC3)c(=O)n2C)n1 (stereo not shown) [Example 12, 3-methoxy-4-{[5-methyl-6-oxo-7-(tetrahydrofuran-3-ylmethoxy)-5,6-dihydropyrido[3,2-d]pyrimidin-2-yl]amino}-N-(1-methylpiperidin-4-yl)benzamide] | < 1000 |
| COc1cc(C(=O)NC2CCN(C)CC2)ccc1Nc1ncc2c(n1)c(-c1cccs1)c(OC)c(=O)n2C [Example 5, 3-methoxy-4-{[7-methoxy-5-methyl-6-oxo-8-(2-thienyl)-5,6-dihydro-pyrido[3,2-d]pyrimidin-2-yl]amino}-N-(1-methylpiperidin-4-yl)benzamide] | < 100 |
| CCC(C)Oc1c(-c2ccsc2)c2nc(Nc3ccc(C(=O)NC4CCN(C)CC4)cc3OC)ncc2n(C)c1=O (stereo not shown) [Example 36, 4-{[7-sec-butoxy-5-methyl-6-oxo-8-(3-thienyl)-5,6-dihydropyrido[3,2-d]pyrimidin-2-yl]amino}-3-methoxy-N-(1-methylpiperidin-4-yl)benzamide] | < 100 |

From patent publication EP2100894A1, “Pyridopyrimidines used as Plk1 (polo-like kinase) inhibitors” (4SC AG, priority 2008, dated 2009)
